The text below walks through data of BindingDB's records for doi:10.1016/j.chembiol.2005.08.008 (Gpc Biotech, 2005).

The structures appear in SMILES notation. Where only a bound is given, the exact number is not on record here.

In assay [1] the target is T1, Cyclin-dependent kinase 2/G1/S-specific cyclin-E1 (Homo sapiens, UniProt P24941). In words: In Vitro Kinase Assay. From the text: (§1) Inhibition of in vitro kinase activity of purified CDKs.
Assay [2] addresses T2, Cyclin-dependent kinase 4/G1/S-specific cyclin-D1 (Homo sapiens, UniProt P11802). In words: In Vitro Kinase Assay.
Source text: as §1

Assay [3] deals with T3, Cyclin-dependent kinase/G2/mitotic-specific cyclin- 1 (Homo sapiens, UniProt P06493). The experiment in a line: In Vitro Kinase Assay.
Source text: as §1

Assay [4] concerns the target T3, Cyclin-dependent kinase/G2/mitotic-specific cyclin- 1. The experiment in a line: Cell Proliferation Assay. On the procedure: Inhibition of HCT116 cell proliferation after 72hr of incubation with compounds was determined by SRB Assay.
In assay [5] the target is T4, CDK-activating kinase assembly factor MAT1 (Homo sapiens, UniProt P51948).
T4 sequence (P51948 whole entry): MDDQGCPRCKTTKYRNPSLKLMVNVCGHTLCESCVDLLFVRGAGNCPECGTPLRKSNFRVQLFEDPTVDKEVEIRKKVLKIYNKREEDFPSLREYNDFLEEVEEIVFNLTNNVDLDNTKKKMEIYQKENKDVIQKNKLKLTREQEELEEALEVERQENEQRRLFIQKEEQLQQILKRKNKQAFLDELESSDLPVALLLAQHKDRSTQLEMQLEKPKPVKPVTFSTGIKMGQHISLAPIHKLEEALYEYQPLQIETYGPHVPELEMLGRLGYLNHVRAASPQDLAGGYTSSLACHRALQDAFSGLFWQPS
The experiment in a line: In Vitro Kinase Assay.
Source text: as §1

Assay [6] deals with CDK3/Cyclin E (Homo sapiens, UniProt Q00526). The experiment in a line: In Vitro Kinase Assay.
Source text: as §1

Assay [7] deals with Cyclin-dependent kinase 5 (Homo sapiens, UniProt Q00535). The experiment in a line: In Vitro Kinase Assay.
Source text: as §1

Assay [8] deals with Cyclin-dependent kinase 6/G1/S-specific cyclin-D3 (Homo sapiens, UniProt Q00534). The experiment in a line: In Vitro Kinase Assay.
Source text: as §1

The target in assay [9] is Glycogen synthase kinase-3 beta (Homo sapiens, UniProt P49841). The experiment in a line: In Vitro Kinase Assay.
The target in assay [10] is T1, Cyclin-dependent kinase 2/G1/S-specific cyclin-E1. The experiment in a line: Inhibition Assay. An excerpt:
(§2) In vitro kinase activity of PEGylated pyrazolopyrimidone CDK inhibitor or a 5 PEG-amine was coupled to ReactiGel agarose beads (Pierce, No. 20259).

Assay [11] concerns the target T2, Cyclin-dependent kinase 4/G1/S-specific cyclin-D1. The experiment in a line: Inhibition Assay.
Source text: as §2

Assay [12] deals with T3, Cyclin-dependent kinase/G2/mitotic-specific cyclin- 1. In words: Inhibition Assay.
Source text: as §2

Assay [13] shares this target. The experiment in a line: Cell Proliferation Assay. From the text:
Inhibition of HCT116 cell proliferation with compounds using calcein AM Assay.
This is another data set of the same source.

T3 sequence (P06493 whole entry): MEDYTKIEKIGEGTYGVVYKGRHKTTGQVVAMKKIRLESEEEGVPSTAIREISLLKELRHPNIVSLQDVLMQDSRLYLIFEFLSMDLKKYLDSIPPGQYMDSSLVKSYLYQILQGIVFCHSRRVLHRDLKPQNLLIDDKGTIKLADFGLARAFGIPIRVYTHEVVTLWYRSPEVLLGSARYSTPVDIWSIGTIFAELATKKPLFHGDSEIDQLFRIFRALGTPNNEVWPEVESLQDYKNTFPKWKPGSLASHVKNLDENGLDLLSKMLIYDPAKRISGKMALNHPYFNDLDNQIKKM
T3 sequence (P14635 whole entry, further chain): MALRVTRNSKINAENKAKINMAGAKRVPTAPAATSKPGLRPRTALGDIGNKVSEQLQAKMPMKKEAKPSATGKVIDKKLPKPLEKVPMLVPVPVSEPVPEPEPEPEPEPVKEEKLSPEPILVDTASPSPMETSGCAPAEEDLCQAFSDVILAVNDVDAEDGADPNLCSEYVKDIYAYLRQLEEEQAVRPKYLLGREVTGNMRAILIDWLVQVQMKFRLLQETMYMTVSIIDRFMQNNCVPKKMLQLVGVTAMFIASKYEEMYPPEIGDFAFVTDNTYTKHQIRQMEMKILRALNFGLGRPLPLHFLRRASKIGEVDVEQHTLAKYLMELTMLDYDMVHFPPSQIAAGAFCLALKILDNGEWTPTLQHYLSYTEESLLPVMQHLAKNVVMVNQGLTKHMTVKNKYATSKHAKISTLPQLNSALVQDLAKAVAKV
T2 sequence (P11802 whole entry): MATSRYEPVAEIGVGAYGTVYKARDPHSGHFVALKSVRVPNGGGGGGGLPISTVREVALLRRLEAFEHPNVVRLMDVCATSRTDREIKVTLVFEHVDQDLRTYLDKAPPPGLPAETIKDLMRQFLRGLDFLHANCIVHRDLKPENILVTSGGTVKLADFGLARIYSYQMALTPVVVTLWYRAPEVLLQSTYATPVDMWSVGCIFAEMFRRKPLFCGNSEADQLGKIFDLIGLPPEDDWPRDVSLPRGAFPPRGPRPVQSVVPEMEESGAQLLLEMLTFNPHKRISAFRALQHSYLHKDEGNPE
T2 sequence (P24385 whole entry, further chain): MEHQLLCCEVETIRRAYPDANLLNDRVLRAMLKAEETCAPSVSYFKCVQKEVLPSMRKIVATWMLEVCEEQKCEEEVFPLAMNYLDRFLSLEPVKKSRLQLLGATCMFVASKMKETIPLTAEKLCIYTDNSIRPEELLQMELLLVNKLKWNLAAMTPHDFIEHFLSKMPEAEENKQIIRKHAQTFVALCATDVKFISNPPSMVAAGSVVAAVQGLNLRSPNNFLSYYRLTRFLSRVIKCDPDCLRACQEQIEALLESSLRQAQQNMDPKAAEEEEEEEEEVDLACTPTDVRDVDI
Sequence of Glycogen synthase kinase-3 beta (P49841 whole entry): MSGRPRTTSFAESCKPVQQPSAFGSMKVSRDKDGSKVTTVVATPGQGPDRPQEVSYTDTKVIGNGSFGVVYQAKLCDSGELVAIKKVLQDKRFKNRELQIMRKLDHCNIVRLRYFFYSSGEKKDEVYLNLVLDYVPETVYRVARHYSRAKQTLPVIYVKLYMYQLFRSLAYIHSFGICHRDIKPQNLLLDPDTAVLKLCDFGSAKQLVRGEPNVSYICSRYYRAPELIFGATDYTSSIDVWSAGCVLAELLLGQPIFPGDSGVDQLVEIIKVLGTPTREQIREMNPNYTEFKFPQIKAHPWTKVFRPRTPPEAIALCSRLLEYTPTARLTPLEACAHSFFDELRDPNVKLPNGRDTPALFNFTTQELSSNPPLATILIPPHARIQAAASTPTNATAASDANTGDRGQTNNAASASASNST
Sequence of Cyclin-dependent kinase 6/G1/S-specific cyclin-D3 (Q00534 whole entry): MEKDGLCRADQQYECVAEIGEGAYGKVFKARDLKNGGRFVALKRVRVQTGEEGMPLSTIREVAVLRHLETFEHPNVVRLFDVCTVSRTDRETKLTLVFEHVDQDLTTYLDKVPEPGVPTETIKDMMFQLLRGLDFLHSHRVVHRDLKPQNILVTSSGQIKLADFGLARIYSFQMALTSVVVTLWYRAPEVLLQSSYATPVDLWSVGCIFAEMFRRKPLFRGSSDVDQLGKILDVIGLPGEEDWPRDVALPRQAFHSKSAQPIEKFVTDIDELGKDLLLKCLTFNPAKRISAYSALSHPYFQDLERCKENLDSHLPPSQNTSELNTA
Sequence of Cyclin-dependent kinase 6/G1/S-specific cyclin-D3 (P30281 whole entry, further chain): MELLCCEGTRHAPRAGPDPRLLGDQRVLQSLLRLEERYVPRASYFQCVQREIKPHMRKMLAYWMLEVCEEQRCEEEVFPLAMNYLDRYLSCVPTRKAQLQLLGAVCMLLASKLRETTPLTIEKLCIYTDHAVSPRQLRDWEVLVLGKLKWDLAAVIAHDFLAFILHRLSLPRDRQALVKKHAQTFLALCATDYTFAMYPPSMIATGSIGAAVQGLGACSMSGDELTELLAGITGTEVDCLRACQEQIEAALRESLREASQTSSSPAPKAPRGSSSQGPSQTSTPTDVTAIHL
Sequence of CDK3/Cyclin E (P24864 whole entry): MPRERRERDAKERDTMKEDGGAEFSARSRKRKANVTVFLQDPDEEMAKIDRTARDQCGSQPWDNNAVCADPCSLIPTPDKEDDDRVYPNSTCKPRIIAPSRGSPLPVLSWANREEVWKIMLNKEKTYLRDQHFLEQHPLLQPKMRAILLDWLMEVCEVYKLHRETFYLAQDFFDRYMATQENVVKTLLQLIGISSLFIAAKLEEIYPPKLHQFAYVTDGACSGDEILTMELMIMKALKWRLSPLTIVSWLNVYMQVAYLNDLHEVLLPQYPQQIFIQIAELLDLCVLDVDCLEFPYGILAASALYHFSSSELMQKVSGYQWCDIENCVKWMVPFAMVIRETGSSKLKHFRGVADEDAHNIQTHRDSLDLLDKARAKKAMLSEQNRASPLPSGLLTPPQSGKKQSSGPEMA
Sequence of CDK3/Cyclin E (Q00526 whole entry): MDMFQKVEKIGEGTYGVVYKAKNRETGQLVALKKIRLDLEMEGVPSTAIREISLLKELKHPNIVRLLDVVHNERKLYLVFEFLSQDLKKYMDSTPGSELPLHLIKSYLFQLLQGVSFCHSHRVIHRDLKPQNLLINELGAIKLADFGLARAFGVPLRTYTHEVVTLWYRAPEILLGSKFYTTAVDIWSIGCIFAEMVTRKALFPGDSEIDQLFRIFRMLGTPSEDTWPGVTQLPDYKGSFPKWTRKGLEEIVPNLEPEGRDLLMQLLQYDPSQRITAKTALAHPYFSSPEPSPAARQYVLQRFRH
Sequence of Cyclin-dependent kinase 5 (Q00535 whole entry): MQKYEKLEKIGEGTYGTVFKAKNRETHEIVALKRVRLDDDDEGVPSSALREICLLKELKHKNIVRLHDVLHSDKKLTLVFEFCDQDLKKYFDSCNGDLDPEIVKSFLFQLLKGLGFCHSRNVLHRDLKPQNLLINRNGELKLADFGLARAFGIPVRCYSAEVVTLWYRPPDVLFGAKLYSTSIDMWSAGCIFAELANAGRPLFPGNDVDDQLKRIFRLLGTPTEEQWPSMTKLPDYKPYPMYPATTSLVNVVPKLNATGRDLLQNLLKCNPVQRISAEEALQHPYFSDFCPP

For the compound `COc1ccc(Cc2nc3c(c(C(C)C)nn3-c3c(Cl)cc(Cl)cc3Cl)c(=O)[nH]2)cc1` [Pyrazolopyrimidone analog, RGB-285940], the IC50 in assay [1] came out at 0.007 µM; in assay [2], 0.858 µM; in [3] it was 0.23 µM; in assay [4], 0.41 µM.

As for `COc1ccc(Cc2nc3c(c(Cc4ccccc4)nn3-c3c(Cl)cc(Cl)cc3Cl)c(=O)[nH]2)cc1` [Pyrazolopyrimidone analog, RGB-310591], the IC50 in [4] is over 10 µM.

For the compound `CC(C)c1nn(-c2c(Cl)cccc2Cl)c2nc(Cc3ccc(OCCO)cc3)[nH]c(=O)c12` [Pyrazolopyrimidone analog, RGB-286147], the IC50 in assay [5] stood at 0.071 µM; in assay [6], 0.009 µM; in assay [1], 0.015 µM; in [2] it was 0.839 µM; in assay [7], 0.01 µM; in [8] it was 0.282 µM. Further, the IC50 in [3] came to 0.048 µM; in [4] it was 0.051 µM; in assay [9], 0.754 µM.

Consider `COCCOCCOCCOc1ccc(Cc2nc3c(c(C(C)C)nn3-c3c(Cl)cccc3Cl)c(=O)[nH]2)cc1` [PEGylated derivative, RGB-286276], for which the IC50 amounted to 0.022 µM in assay [10], 0.89 µM in assay [11], 0.084 µM in assay [12] and 0.034 µM in assay [13].

Take `COc1ccc(Cc2nc3c(c(C(C)C)nn3-c3c(Cl)cccc3Cl)c(=O)[nH]2)cc1` [Pyrazolopyrimidone analog, RGB-286331]: the IC50 in [1] came to 0.004 µM; in assay [3] it was 0.043 µM; in assay [4], 0.22 µM.

In turn, `COc1ccc(Cc2nc3c(cnn3-c3c(Cl)cc(Cl)cc3Cl)c(=O)[nH]2)cc1` [Pyrazolopyrimidone analog, RGB-310590] gave an IC50 in assay [4] of 5.5 µM.

Regarding `COc1ccc(Cc2nc3c(c(C(C)C)nn3-c3ccccc3)c(=O)[nH]2)cc1` [Pyrazolopyrimidone analog, RGB-310596], the IC50 in [4] was over 10 µM.

Turning to `CC(C)c1nn(-c2c(Cl)cccc2Cl)c2nc(Cc3ccc(OCCN4CCOCC4)cc3)[nH]c(=O)c12` [Pyrazolopyrimidone analog, RGB-285960], the IC50 turned out to be 0.009 µM in assay [1], 1.75 µM in assay [2], 0.31 µM in assay [3] and 0.064 µM in assay [4].

On to `COc1ccc(Cc2nc3n[nH]c(C(C)C)c3c(=O)[nH]2)cc1` [Pyrazolopyrimidone analog, RGB-310595], for which the IC50 in assay [4] is over 10 µM.

In general, IC50 refers to the concentration that inhibits the measured activity by half. The low end stands for higher potency, the high end for lower potency.
